According to paper PMC4512239 (Clinical cancer research : an official journal of the …, 2015):
Entries after “also recorded” stand apart in the source; their conditions may differ.

Assay: phase I safety and tolerability
Type: in vivo, human

## CNC(=O)c1cccc(-c2ccc3c(N4CCOC[C@@H]4C)nc(N4CCOC[C@@H]4C)nc3n2)c1 [AZD2014]
Part A 70mg BD solution (N=5)
  Fatigue, Any grade: 3 (60.0) Number (%) of patients
  Fatigue, CTCAE grade 1-2: 2 (40.0) Number (%) of patients
  Hypokalemia, Any grade: 1 (20.0) Number (%) of patients
  Hypokalemia, CTCAE grade 1-2: 1 (20.0) Number (%) of patients
  Hypokalemia, CTCAE grade >=3: 0 Number (%) of patients
  Lower respiratory tract infection, Any grade: 1 (20.0) Number (%) of patients
  Lower respiratory tract infection, CTCAE grade 1-2: 1 (20.0) Number (%) of patients
  Lower respiratory tract infection, CTCAE grade >=3: 0 Number (%) of patients
  Mucositis, Any grade: 5 (100.0) Number (%) of patients
  Mucositis, CTCAE grade 1-2: 3 (60.0) Number (%) of patients
  Mucositis, CTCAE grade >=3: 2 (40.0) Number (%) of patients
  Nausea, Any grade: 3 (60.0) Number (%) of patients
  Nausea, CTCAE grade 1-2: 3 (60.0) Number (%) of patients
  Nausea, CTCAE grade >=3: 0 Number (%) of patients
  Pruritus, Any grade: 0 Number (%) of patients
  Pruritus, CTCAE grade 1-2: 0 Number (%) of patients
  Pruritus, CTCAE grade >=3: 0 Number (%) of patients
  Rash, Any grade: 1 (20.0) Number (%) of patients
  Rash, CTCAE grade 1-2: 0 Number (%) of patients
  Rash, CTCAE grade >=3: 1 (20.0) Number (%) of patients
  Vomiting, Any grade: 0 Number (%) of patients
  Vomiting, CTCAE grade 1-2: 0 Number (%) of patients
  Vomiting, CTCAE grade >=3: 0 Number (%) of patients
Part A 100mg BD solution (N=4)
  Anemia, Any grade: 1 (25.0) Number (%) of patients
  Anemia, CTCAE grade 1-2: 0 Number (%) of patients
  Anemia, CTCAE grade >=3: 1 (25.0) Number (%) of patients
  Back pain, Any grade: 2 (50.0) Number (%) of patients
  Back pain, CTCAE grade 1-2: 2 (50.0) Number (%) of patients
  Back pain, CTCAE grade >=3: 0 Number (%) of patients
  Constipation, Any grade: 1 (25.0) Number (%) of patients
  Constipation, CTCAE grade 1-2: 1 (25.0) Number (%) of patients
  Constipation, CTCAE grade >=3: 0 Number (%) of patients
  Cough, Any grade: 0 Number (%) of patients
  Cough, CTCAE grade 1-2: 0 Number (%) of patients
  Cough, CTCAE grade >=3: 0 Number (%) of patients
  Decreased appetite, Any grade: 4 (100.0) Number (%) of patients
  Decreased appetite, CTCAE grade 1-2: 4 (100.0) Number (%) of patients
  Decreased appetite, CTCAE grade >=3: 0 Number (%) of patients
  Diarrhea, Any grade: 1 (25.0) Number (%) of patients
  Diarrhea, CTCAE grade 1-2: 1 (25.0) Number (%) of patients
  Diarrhea, CTCAE grade >=3: 0 Number (%) of patients
  Dry mouth, Any grade: 1 (25.0) Number (%) of patients
  Dry mouth, CTCAE grade 1-2: 1 (25.0) Number (%) of patients
  Dry mouth, CTCAE grade >=3: 0 Number (%) of patients
  Dyspnea, Any grade: 2 (50.0) Number (%) of patients
  Dyspnea, CTCAE grade 1-2: 2 (50.0) Number (%) of patients
  Dyspnea, CTCAE grade >=3: 0 Number (%) of patients
  Fatigue, Any grade: 4(100.0) Number (%) of patients
  Fatigue, CTCAE grade 1-2: 2 (50.0) Number (%) of patients
  Fatigue, CTCAE grade >=3: 2 (50.0) Number (%) of patients
  Hypokalemia, Any grade: 0 Number (%) of patients
  Hypokalemia, CTCAE grade 1-2: 0 Number (%) of patients
  Hypokalemia, CTCAE grade >=3: 0 Number (%) of patients
  Lower respiratory tract infection, Any grade: 0 Number (%) of patients
  Lower respiratory tract infection, CTCAE grade 1-2: 0 Number (%) of patients
  Lower respiratory tract infection, CTCAE grade >=3: 0 Number (%) of patients
  Mucositis, Any grade: 3 (75.0) Number (%) of patients
  Mucositis, CTCAE grade 1-2: 3 (75.0) Number (%) of patients
  Mucositis, CTCAE grade >=3: 0 Number (%) of patients
  Nausea, Any grade: 4 (100.0) Number (%) of patients
  Nausea, CTCAE grade 1-2: 4 (100.0) Number (%) of patients
  Nausea, CTCAE grade >=3: 0 Number (%) of patients
  Pruritus, Any grade: 0 Number (%) of patients
  Pruritus, CTCAE grade 1-2: 0 Number (%) of patients
  Pruritus, CTCAE grade >=3: 0 Number (%) of patients
  Rash, Any grade: 0 Number (%) of patients
  Rash, CTCAE grade 1-2: 0 Number (%) of patients
  Rash, CTCAE grade >=3: 0 Number (%) of patients
  Vomiting, Any grade: 4 (100.0) Number (%) of patients
  Vomiting, CTCAE grade 1-2: 4 (100.0) Number (%) of patients
  Vomiting, CTCAE grade >=3: 0 Number (%) of patients
RP2D of 50 mg BD
  grade 3 or 4 hyperglycemia: no grade 3 or 4 hyperglycemia was seen
At the MTD (50 mg BD)
  fatigue, most common AEs: 78%
  fatigue, nausea and mucositis equal to or greater than grade 3, patients: 5%
Dose range 25-100 mg
  nature of the dose limiting toxicities: fatigue and mucositis
oral, continuous twice daily dosing
  recommended phase II dose (RP2D): 50 mg BD
oral, continuous twice daily dosing, solution
  maximally tolerated dose (MTD): 50 mg BD
Phase I study
  pneumonitis: no patients were diagnosed with pneumonitis; also recorded: no instances of pneumonitis
Total (N=56)
  Anemia, Any grade: 9 (16.1) Number (%) of patients
  Anemia, CTCAE grade 1-2: 7 (12.5) Number (%) of patients
  Anemia, CTCAE grade >=3: 2 (3.6) Number (%) of patients
  Back pain, Any grade: 9 (16.1) Number (%) of patients
  Back pain, CTCAE grade 1-2: 8 (14.3) Number (%) of patients
  Back pain, CTCAE grade >=3: 1 (1.8) Number (%) of patients
  Constipation, Any grade: 16 (28.6) Number (%) of patients
  Constipation, CTCAE grade 1-2: 16 (28.6) Number (%) of patients
  Constipation, CTCAE grade >=3: 0 Number (%) of patients
  Cough, Any grade: 12 (21.4) Number (%) of patients
  Cough, CTCAE grade 1-2: 12 (21.4) Number (%) of patients
  Cough, CTCAE grade >=3: 0 Number (%) of patients
  Decreased appetite, Any grade: 26 (46.4) Number (%) of patients
  Decreased appetite, CTCAE grade 1-2: 26 (46.4) Number (%) of patients
  Decreased appetite, CTCAE grade >=3: 0 Number (%) of patients
  Diarrhea, Any grade: 23 (41.1) Number (%) of patients
  Diarrhea, CTCAE grade 1-2: 23 (41.1) Number (%) of patients
  Diarrhea, CTCAE grade >=3: 0 Number (%) of patients
  Dry mouth, Any grade: 10 (17.9) Number (%) of patients
  Dry mouth, CTCAE grade 1-2: 10 (17.9) Number (%) of patients
  Dry mouth, CTCAE grade >=3: 0 Number (%) of patients
  Dyspnea, Any grade: 11 (19.6) Number (%) of patients
  Dyspnea, CTCAE grade 1-2: 9 (16.1) Number (%) of patients
  Dyspnea, CTCAE grade >=3: 2 (3.6) Number (%) of patients
  Fatigue, Any grade: 42 (75.0) Number (%) of patients
  Fatigue, CTCAE grade 1-2: 36 (64.3) Number (%) of patients
  Fatigue, CTCAE grade >=3: 6 (10.7) Number (%) of patients
  Hypokalemia, Any grade: 9 (16.1) Number (%) of patients
  Hypokalemia, CTCAE grade 1-2: 8 (14.3) Number (%) of patients
  Hypokalemia, CTCAE grade >=3: 1 (1.8) Number (%) of patients
  Lower respiratory tract infection, Any grade: 9 (16.1) Number (%) of patients
  Lower respiratory tract infection, CTCAE grade 1-2: 7 (12.5) Number (%) of patients
  Lower respiratory tract infection, CTCAE grade >=3: 2 (3.6) Number (%) of patients
  Mucositis, Any grade: 30 (53.6) Number (%) of patients
  Mucositis, CTCAE grade 1-2: 27 (48.2) Number (%) of patients
  Mucositis, CTCAE grade >=3: 3 (5.4) Number (%) of patients
  Nausea, Any grade: 30 (53.6) Number (%) of patients
  Nausea, CTCAE grade 1-2: 28 (50.0) Number (%) of patients
  Nausea, CTCAE grade >=3: 2 (3.6) Number (%) of patients
  Pruritus, Any grade: 13 (23.2) Number (%) of patients
  Pruritus, CTCAE grade 1-2: 13 (23.2) Number (%) of patients
  Pruritus, CTCAE grade >=3: 0 Number (%) of patients
  Rash, CTCAE grade 1-2: 16 (28.6) Number (%) of patients
  Rash, CTCAE grade >=3: 3 (5.4) Number (%) of patients
  Vomiting, Any grade: 16 (28.6) Number (%) of patients
  Vomiting, CTCAE grade 1-2: 15 (26.8) Number (%) of patients
  Vomiting, CTCAE grade >=3: 1 (1.8) Number (%) of patients
